Values of other authors in US8486621B2, “Nucleic acid-based matrixes” (Cornell Research Foundation, Inc., priority 2005, dated 2013).

Legend:
PPAR-gamma = biological target: T1, PPAR-gamma (Homo sapiens, UniProt P37231); conditions: context-specific, some cell types
T1 sequence (P37231 1-505): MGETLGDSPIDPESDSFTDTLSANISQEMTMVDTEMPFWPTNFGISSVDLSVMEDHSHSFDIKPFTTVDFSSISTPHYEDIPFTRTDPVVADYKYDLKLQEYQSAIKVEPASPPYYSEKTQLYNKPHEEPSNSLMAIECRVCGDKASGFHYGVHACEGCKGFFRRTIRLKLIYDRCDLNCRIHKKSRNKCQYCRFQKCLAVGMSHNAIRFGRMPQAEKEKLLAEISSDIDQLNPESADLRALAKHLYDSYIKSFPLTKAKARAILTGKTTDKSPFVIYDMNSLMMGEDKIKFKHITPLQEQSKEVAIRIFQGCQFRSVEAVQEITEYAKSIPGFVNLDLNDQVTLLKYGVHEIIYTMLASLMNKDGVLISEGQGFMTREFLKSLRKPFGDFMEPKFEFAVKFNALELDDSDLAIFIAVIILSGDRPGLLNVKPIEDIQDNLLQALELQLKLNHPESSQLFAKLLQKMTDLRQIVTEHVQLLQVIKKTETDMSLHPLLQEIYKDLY

[1] = system: plasma glucose, insulin, and triglyceride levels; conditions: in vivo
[2] = system: major and minor grooves of the DNA molecules

Compound: O=C1NC(=O)C(Cc2ccc3cc(OCc4ccccc4F)ccc3c2)S1 (stereo not shown) [netoglitazone, 5-[{6-(2-fluorobenzyl)oxy-2-naphthyl}methyl]-2,4-thiazolidinedione]
- mode of action at PPAR-gamma (PPAR-gamma): full agonist of PPAR-gamma and as a partial agonist or antagonist in others
- efficacy in lowering plasma glucose, insulin, and triglyceride levels [1]: more efficacious than pioglitazone and troglitazone
- potency relative to rosiglitazone [1]: about three-fold more potent than rosiglitazone

Compound: CC[C@@]1(O)C(=O)OCc2c1cc1n(c2=O)Cc2cc3ccccc3nc2-1 [CPT, (S)-(+)-camptothecin]
- affinity to DNA [2]: high affinity
